Key:
[1] = biological target: Insulin receptor (Homo sapiens) (UniProt P06213); settings: Compound concentration 1000.0 nM
[2] = biological target: Serine/threonine-protein kinase OSR1 (Homo sapiens) (UniProt O95747); settings: Compound concentration 1000.0 nM
[3] = biological target: Non-receptor tyrosine-protein kinase TYK2 (Homo sapiens) (UniProt P29597); settings: Compound concentration 1000.0 nM
[4] = system: Mast/stem cell growth factor receptor Kit (Homo sapiens), P10721 [A829P]; settings: Compound concentration 1000.0 nM
[5] = biological target: Death-associated protein kinase 2 (Homo sapiens) (UniProt Q9UIK4); settings: Compound concentration 1000.0 nM
[6] = biological target: Histamine H4 receptor (Homo sapiens) (UniProt Q9H3N8); settings: Compound concentration 10.0 uM
[7] = system: Receptor-type tyrosine-protein kinase FLT3 (Homo sapiens), P36888 [K663Q]; settings: Compound concentration 1000.0 nM
[8] = biological target: Mitogen-activated protein kinase kinase kinase kinase 2 (Homo sapiens) (UniProt Q12851); settings: Compound concentration 1000.0 nM
[9] = biological target: Serine/threonine-protein kinase PRP4 homolog (Homo sapiens) (UniProt Q13523); settings: Compound concentration 1000.0 nM
[10] = biological target: Casein kinase I isoform delta (Homo sapiens) (UniProt P48730); settings: Compound concentration 1000.0 nM
[11] = biological target: Calcium/calmodulin-dependent protein kinase type IV (Homo sapiens) (UniProt Q16566); settings: Compound concentration 1000.0 nM
[12] = biological target: LIM domain kinase 1 (Homo sapiens) (UniProt P53667); settings: Compound concentration 1000.0 nM
[13] = biological target: Calcium/calmodulin-dependent protein kinase type II subunit delta (Homo sapiens) (UniProt Q13557); settings: Compound concentration 1000.0 nM
Calcium/calmodulin-dependent protein kinase type II subunit delta (Homo sapiens), sequence (Q13557 whole entry): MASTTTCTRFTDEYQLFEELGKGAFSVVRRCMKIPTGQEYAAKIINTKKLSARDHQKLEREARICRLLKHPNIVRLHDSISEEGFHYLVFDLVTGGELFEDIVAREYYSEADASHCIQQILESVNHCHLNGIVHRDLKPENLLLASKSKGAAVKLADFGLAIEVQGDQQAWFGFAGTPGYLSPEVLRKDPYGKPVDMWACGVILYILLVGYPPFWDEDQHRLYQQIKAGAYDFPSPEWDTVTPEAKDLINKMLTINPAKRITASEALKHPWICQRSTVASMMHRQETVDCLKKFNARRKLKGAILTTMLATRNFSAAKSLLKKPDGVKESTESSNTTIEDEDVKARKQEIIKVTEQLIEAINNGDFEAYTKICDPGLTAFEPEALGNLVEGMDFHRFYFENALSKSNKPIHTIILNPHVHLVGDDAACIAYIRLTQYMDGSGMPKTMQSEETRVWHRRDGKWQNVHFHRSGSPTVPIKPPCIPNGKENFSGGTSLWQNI

[14] = biological target: Casein kinase II subunit alpha (Homo sapiens) (UniProt P68400); settings: Compound concentration 1000.0 nM
[15] = biological target: Mitogen-activated protein kinase kinase kinase 19 (Homo sapiens) (UniProt Q56UN5); settings: Compound concentration 1000.0 nM
[16] = biological target: 3-phosphoinositide-dependent protein kinase 1 (Homo sapiens) (UniProt O15530); settings: Compound concentration 1000.0 nM
[17] = biological target: Bone morphogenetic protein receptor type-1A (Homo sapiens) (UniProt P36894); settings: Compound concentration 1000.0 nM
[18] = system: Phosphatidylinositol 4,5-bisphosphate 3-kinase catalytic subunit alpha isoform (Homo sapiens), P42336 [H1047Y]; settings: Compound concentration 1000.0 nM
[19] = biological target: Cyclin-dependent kinase 2 homolog (Plasmodium falciparum (isolate 3D7)) (UniProt P61075); settings: Compound concentration 1000.0 nM
[20] = biological target: Transient receptor potential cation channel subfamily M member 6 (Homo sapiens) (UniProt Q9BX84); settings: Compound concentration 1000.0 nM
[21] = system: Phosphatidylinositol 4,5-bisphosphate 3-kinase catalytic subunit alpha isoform (Homo sapiens), P42336 [I800L]; settings: Compound concentration 1000.0 nM
[22] = biological target: Beta-1 adrenergic receptor (Homo sapiens) (UniProt P08588); settings: Compound concentration 10.0 uM
[23] = biological target: Mitogen-activated protein kinase 14 (Homo sapiens) (UniProt Q16539); settings: Compound concentration 1000.0 nM
[24] = biological target: AP2-associated protein kinase 1 (Homo sapiens) (UniProt Q2M2I8); settings: Compound concentration 1000.0 nM
[25] = biological target: Serine/threonine-protein kinase Nek2 (Homo sapiens) (UniProt P51955); settings: Compound concentration 1000.0 nM
Serine/threonine-protein kinase Nek2 (Homo sapiens), sequence (P51955 whole entry): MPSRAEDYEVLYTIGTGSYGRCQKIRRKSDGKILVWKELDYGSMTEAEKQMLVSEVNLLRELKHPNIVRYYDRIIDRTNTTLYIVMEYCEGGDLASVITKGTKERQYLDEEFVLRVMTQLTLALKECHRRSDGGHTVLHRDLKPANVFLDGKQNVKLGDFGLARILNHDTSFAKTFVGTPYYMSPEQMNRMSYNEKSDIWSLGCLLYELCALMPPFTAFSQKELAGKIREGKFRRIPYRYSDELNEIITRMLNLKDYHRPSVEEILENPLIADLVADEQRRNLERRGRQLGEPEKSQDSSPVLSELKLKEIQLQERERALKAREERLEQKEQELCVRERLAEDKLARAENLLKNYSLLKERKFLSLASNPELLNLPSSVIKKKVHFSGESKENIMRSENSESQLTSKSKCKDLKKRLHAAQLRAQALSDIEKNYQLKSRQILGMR

[26] = biological target: Mitogen-activated protein kinase kinase kinase 15 (Homo sapiens) (UniProt Q6ZN16); settings: Compound concentration 1000.0 nM
[27] = biological target: Casein kinase I isoform gamma-3 (Homo sapiens) (UniProt Q9Y6M4); settings: Compound concentration 1000.0 nM
[28] = biological target: Citron Rho-interacting kinase (Homo sapiens) (UniProt O14578); settings: Compound concentration 1000.0 nM
[29] = biological target: Serine/threonine-protein kinase tousled-like 2 (Homo sapiens) (UniProt Q86UE8); settings: Compound concentration 1000.0 nM
Serine/threonine-protein kinase tousled-like 2 (Homo sapiens), sequence (Q86UE8 whole entry, looked up): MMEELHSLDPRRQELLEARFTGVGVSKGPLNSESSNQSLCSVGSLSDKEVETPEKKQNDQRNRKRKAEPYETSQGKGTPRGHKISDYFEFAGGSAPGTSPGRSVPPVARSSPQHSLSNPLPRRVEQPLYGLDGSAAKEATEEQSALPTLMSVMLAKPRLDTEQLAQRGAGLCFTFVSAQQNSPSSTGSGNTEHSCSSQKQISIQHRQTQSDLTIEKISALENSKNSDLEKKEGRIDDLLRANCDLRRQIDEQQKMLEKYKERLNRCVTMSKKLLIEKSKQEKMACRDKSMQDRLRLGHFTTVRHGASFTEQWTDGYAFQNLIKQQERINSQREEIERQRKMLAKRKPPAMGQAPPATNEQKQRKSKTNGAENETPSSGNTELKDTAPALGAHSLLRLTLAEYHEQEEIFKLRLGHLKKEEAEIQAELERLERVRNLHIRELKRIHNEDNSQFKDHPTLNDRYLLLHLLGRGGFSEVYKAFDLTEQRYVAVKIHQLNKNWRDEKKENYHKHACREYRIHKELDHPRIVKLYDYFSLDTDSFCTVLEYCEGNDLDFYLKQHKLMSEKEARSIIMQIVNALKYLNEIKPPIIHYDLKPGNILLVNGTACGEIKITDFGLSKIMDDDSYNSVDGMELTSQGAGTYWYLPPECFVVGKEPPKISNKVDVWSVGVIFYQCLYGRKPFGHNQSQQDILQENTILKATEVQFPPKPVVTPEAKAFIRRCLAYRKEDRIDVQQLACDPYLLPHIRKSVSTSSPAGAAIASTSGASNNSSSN

[30] = biological target: D(1A) dopamine receptor (Homo sapiens) (UniProt P21728); settings: Compound concentration 10.0 uM
[31] = biological target: Tyrosine-protein kinase Fes/Fps (Homo sapiens) (UniProt P07332); settings: Compound concentration 1000.0 nM
[32] = biological target: Uncharacterized serine/threonine-protein kinase SBK3 (Homo sapiens) (UniProt P0C264); settings: Compound concentration 1000.0 nM
Uncharacterized serine/threonine-protein kinase SBK3 (Homo sapiens), sequence (P0C264 whole entry): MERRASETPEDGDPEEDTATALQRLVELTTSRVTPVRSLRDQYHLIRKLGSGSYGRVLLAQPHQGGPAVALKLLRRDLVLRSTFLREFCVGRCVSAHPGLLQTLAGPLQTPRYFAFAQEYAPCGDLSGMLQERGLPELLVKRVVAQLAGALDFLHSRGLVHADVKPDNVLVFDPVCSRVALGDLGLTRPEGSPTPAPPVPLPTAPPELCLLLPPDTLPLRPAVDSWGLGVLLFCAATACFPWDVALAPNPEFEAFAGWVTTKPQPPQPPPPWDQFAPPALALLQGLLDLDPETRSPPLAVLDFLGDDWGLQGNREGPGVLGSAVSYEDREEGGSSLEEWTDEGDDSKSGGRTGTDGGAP

[33] = biological target: Ribosomal protein S6 kinase alpha-5 (Homo sapiens) (UniProt O75582); settings: Compound concentration 1000.0 nM
Ribosomal protein S6 kinase alpha-5 (Homo sapiens), sequence (O75582 whole entry, looked up): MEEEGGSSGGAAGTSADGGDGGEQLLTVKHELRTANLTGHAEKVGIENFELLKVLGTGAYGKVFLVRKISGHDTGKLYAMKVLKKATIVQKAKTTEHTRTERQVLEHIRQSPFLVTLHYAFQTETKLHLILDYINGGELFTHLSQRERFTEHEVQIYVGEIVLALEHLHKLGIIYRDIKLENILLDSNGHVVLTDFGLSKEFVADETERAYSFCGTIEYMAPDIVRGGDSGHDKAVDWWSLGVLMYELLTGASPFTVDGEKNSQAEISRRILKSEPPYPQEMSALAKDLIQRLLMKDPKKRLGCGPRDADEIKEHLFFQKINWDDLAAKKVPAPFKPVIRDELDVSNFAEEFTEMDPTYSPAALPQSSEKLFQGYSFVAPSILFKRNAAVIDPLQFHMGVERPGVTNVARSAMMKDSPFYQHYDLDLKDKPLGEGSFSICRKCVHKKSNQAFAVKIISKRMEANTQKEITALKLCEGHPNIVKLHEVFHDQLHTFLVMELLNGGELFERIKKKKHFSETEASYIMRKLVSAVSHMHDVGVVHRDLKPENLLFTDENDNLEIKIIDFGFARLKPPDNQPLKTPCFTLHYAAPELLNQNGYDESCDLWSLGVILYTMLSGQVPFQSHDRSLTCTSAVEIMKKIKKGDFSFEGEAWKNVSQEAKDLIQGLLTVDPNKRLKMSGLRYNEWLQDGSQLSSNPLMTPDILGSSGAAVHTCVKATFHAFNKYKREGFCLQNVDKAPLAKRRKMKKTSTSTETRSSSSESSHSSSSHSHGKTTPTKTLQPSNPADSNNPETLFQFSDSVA

[34] = biological target: Mitogen-activated protein kinase 1 (Homo sapiens) (UniProt P28482); settings: Compound concentration 1000.0 nM
Mitogen-activated protein kinase 1 (Homo sapiens), sequence (P28482 whole entry): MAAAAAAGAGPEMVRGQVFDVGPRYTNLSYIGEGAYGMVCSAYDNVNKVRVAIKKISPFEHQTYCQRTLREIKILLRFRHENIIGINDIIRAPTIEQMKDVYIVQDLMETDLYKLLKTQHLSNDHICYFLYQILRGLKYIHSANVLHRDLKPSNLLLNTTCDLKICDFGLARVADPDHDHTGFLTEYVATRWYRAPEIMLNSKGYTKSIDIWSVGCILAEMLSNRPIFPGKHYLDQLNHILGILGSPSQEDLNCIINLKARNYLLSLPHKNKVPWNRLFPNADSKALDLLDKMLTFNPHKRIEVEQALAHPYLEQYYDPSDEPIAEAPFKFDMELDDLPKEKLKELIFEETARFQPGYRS

[35] = biological target: Receptor tyrosine-protein kinase erbB-3 (Homo sapiens) (UniProt P21860); settings: Compound concentration 1000.0 nM
[36] = biological target: NT-3 growth factor receptor (Homo sapiens) (UniProt Q16288); settings: Compound concentration 1000.0 nM
[37] = biological target: Platelet-derived growth factor receptor beta (Homo sapiens) (UniProt P09619); settings: Compound concentration 1000.0 nM
[38] = biological target: Dual specificity mitogen-activated protein kinase kinase 5 (Homo sapiens) (UniProt Q13163); settings: Compound concentration 1000.0 nM
[39] = biological target: Kappa-type opioid receptor (Homo sapiens) (UniProt P41145); settings: Compound concentration 10.0 uM
[40] = biological target: Serine/threonine-protein kinase PAK 2 (Homo sapiens) (UniProt Q13177); settings: Compound concentration 1000.0 nM
[41] = biological target: Epithelial discoidin domain-containing receptor 1 (Homo sapiens) (UniProt Q08345); settings: Compound concentration 1000.0 nM
Epithelial discoidin domain-containing receptor 1 (Homo sapiens), sequence (Q08345 whole entry, the tested form may be a part): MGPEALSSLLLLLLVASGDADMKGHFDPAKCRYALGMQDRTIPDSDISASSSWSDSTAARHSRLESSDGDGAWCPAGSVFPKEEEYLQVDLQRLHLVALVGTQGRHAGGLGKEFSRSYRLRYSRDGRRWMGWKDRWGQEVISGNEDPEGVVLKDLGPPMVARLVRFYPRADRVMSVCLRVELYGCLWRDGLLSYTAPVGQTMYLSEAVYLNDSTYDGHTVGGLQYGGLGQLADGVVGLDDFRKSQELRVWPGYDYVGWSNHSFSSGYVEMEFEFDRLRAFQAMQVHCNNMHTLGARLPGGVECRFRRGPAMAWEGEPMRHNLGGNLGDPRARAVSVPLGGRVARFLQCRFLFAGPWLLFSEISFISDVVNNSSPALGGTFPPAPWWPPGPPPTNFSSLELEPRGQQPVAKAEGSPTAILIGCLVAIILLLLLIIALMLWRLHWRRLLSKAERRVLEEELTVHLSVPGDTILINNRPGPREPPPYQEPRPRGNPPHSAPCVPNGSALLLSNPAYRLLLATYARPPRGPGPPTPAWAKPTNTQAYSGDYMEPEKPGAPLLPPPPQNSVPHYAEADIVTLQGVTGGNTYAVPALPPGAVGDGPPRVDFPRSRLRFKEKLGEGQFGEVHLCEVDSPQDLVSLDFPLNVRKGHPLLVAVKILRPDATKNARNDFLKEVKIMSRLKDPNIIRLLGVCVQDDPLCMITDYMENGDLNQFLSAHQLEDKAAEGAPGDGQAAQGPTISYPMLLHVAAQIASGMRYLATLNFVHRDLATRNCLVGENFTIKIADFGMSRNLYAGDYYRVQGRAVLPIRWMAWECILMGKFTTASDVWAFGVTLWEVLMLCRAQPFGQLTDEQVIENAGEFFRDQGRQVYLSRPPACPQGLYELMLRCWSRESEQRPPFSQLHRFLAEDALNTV

[42] = biological target: Serine/threonine-protein kinase Chk2 (Homo sapiens) (UniProt O96017); settings: Compound concentration 1000.0 nM
[43] = biological target: High affinity nerve growth factor receptor (Homo sapiens) (UniProt P04629); settings: Compound concentration 1000.0 nM
High affinity nerve growth factor receptor (Homo sapiens), sequence (P04629 33-796 limits assumed): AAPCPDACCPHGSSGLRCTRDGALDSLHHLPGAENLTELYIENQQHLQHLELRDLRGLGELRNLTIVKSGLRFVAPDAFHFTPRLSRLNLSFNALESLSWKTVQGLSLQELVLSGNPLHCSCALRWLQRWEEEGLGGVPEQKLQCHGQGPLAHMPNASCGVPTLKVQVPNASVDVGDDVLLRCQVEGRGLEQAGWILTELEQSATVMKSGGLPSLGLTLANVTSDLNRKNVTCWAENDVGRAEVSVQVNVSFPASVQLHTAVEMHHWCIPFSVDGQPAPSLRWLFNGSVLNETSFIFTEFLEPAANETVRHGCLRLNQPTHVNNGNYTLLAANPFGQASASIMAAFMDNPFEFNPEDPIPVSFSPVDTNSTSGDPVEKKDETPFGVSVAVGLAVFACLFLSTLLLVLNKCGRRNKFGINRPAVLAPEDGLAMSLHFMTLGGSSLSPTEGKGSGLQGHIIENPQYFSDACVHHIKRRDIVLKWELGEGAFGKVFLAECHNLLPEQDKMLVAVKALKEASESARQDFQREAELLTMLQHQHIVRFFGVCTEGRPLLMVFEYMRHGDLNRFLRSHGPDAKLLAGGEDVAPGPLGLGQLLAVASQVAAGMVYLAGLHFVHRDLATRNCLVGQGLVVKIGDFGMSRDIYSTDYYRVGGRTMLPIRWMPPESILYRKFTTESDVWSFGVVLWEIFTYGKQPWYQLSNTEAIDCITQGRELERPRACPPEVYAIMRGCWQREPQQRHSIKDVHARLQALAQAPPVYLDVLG

[44] = biological target: Protein kinase C theta type (Homo sapiens) (UniProt Q04759); settings: Compound concentration 1000.0 nM
[45] = biological target: Atypical kinase COQ8B, mitochondrial (Homo sapiens) (UniProt Q96D53); settings: Compound concentration 1000.0 nM

COc1cc(-c2cn([C@H]3CCc4c(F)cccc4N(CC(F)(F)F)C3=O)nn2)ccc1-n1cnc(C)c1
inactive: residual activity [1] 90% | residual activity [2] 100% | residual activity [3] 100% | residual activity [4] 92% | residual activity [5] 100% | inhibition [6] -2.49% | residual activity [7] 92% | residual activity [8] 100% | residual activity [9] 100% | residual activity [10] 100% | residual activity [11] 100% | residual activity [12] 100% | residual activity [13] 100% | residual activity [14] 100% | residual activity [15] 100% | residual activity [16] 93% | residual activity [17] 100% | residual activity [18] 100% | residual activity [19] 100% | residual activity [20] 100% | residual activity [21] 66% | inhibition [22] 2.45% | residual activity [23] 100% | residual activity [24] 100% | residual activity [25] 100% | residual activity [26] 100% | residual activity [27] 86% | residual activity [28] 100% | residual activity [29] 100% | inhibition [30] 5.87% | residual activity [31] 100% | residual activity [32] 100% | residual activity [33] 73% | residual activity [34] 100% | residual activity [35] 98% | residual activity [36] 95% | residual activity [37] 100% | residual activity [38] 58% | inhibition [39] 7.19% | residual activity [40] 91% | residual activity [41] 100% | residual activity [42] 100% | residual activity [43] 81% | residual activity [44] 89% | residual activity [45] 77%

COc1cc(-c2cn([C@H]3CCc4ccccc4N(CC(F)(F)F)C3=O)nn2)ccc1-n1ccc(C)n1
inactive: residual activity [1] 69% | residual activity [2] 91% | residual activity [3] 100% | residual activity [4] 68% | residual activity [5] 100% | inhibition [6] 9.63% | residual activity [7] 100% | residual activity [8] 80% | residual activity [9] 93% | residual activity [10] 100% | residual activity [11] 100% | residual activity [12] 100% | residual activity [13] 100% | residual activity [14] 81% | residual activity [15] 95% | residual activity [16] 100% | residual activity [17] 89% | residual activity [18] 100% | residual activity [19] 100% | residual activity [20] 100% | residual activity [21] 76% | inhibition [22] 3.7% | residual activity [23] 94% | residual activity [24] 100% | residual activity [25] 100% | residual activity [26] 84% | residual activity [27] 86% | residual activity [28] 100% | residual activity [29] 97% | inhibition [30] 3.62% | residual activity [31] 100% | residual activity [32] 92% | residual activity [33] 71% | residual activity [34] 100% | residual activity [35] 77% | residual activity [36] 98% | residual activity [37] 100% | residual activity [38] 74% | inhibition [39] 13.6% | residual activity [40] 100% | residual activity [41] 100% | residual activity [42] 100% | residual activity [43] 63% | residual activity [44] 94% | residual activity [45] 100%
